Experimental data from patent publication US12390455B2, “EZH1/2 dual inhibitor-containing pharmaceutical composition to be used as a combination drug” (DAIICHI SANKYO COMPANY, LIMITED, priority 2018, dated 2025).

Experiments:
Assay in all cases: Cell growth inhibitory activity, Compound A alone and combined with a second medical agent (CellTiter-Glo)
MV-4-11 = assay type: cell-based, human; conditions: MV-4-11, AML, MLL-AF4, FLT3-ITD; 7 days culture then 3 days in assay plate
Procedure: (§1) Cell strains listed in Table 1 and Table 2 were seeded in cell culture plates (for example, 6-well culture plates). DMSO solutions of Compound A diluted to different concentrations or DMSO alone were added such that the concentration of the solvent was 0.1%. The cells were cultured for 7 days. During the culturing, at intervals of about 3 days or 4 days depending on cell proliferation, subculturing was appropriately carried out. In the subculturing, DMSO solutions of Compound A diluted to different concentrations or DMSO alone were added to fresh medium at the same concentration as in initiation of the study. […]
(§2) During the culturing period, the culture conditions were 37° C. and 5% CO2. […] Thereafter, the amount of light emitted from each of the wells was measured by a plate reader (EnVision, PerkinElmer Co., Ltd.). Based on the luminescence of the sample addition group (TS) and the DMSO addition group (CS) for each treatment condition measured on the day of seeding; and the luminescence of the sample addition group (T) and the DMSO addition group (C) for each treatment condition measured on the day of evaluation, the cell growth inhibition rate was calculated in accordance with the following expression: Cell growth inhibition rate %={1−(T−TS)/(C−CS)}×100 […]

KARPAS-422 = assay type: cell-based, human; conditions: KARPAS-422, DLBCL (GCB), EZH2 MT (Y641N); 7 days culture then 3 days in assay plate
Procedure: as §1, §2

OCI-AML3 = assay type: cell-based; conditions: OCI-AML3, AML, NPM1mt, DNMT3Amt; 7 days culture then 3 days in assay plate
Procedure: (§3) Cell strains listed in Table 1 and Table 2 were seeded in cell culture plates (for example, 6-well culture plates). DMSO solutions of Compound A diluted to different concentrations or DMSO alone were added such that the concentration of the solvent was 0.1%. The cells were cultured for 7 days. During the culturing, at intervals of about 3 days or 4 days depending on cell proliferation, subculturing was appropriately carried out. In the subculturing, DMSO solutions of Compound A diluted to different concentrations or DMSO alone were added to fresh medium at the same concentration as in initiation of the study.
(§4) The cell strains cultured in the above conditions were seeded in 96-well assay plates and the cells were cultured under a combination of the following conditions: • (i) DMSO solutions of Compound A diluted to different concentrations or DMSO alone were added such that the concentration of the solvent was 0.1%, and • (ii) DMSO solutions of a second medical agent or DMSO alone (if a preparation of a second medical agent was used, the preparation of the second medical agent was diluted with saline and used, or saline alone was used) was added such that the concentration of the solvent was 0.1%.
(§5) During the culturing period, the culture conditions were 37° C. and 5% CO2. On the day when the cells were seeded in a 96-well assay plate (day of seeding) and 3 days later (day of evaluation), a reaction was carried out using CellTiter-Glo 2.0 Assay reagent (Promega KK., #G9241) in accordance with the manual attached thereto. Thereafter, the amount of light emitted from each of the wells was measured by a plate reader (EnVision, PerkinElmer Co., Ltd.). Based on the luminescence of the sample addition group (TS) and the DMSO addition group (CS) for each treatment condition measured on the day of seeding; and the luminescence of the sample addition group (T) and the DMSO addition group (C) for each treatment condition measured on the day of evaluation, the cell growth inhibition rate was calculated in accordance with the following expression: Cell growth inhibition rate %={1−(T−TS)/(C−CS)}×100
(§6) Note that, if the number of cells of a sample addition group on the day of evaluation was lower than that of the day of seeding (T<TS), the cell-killing effect was calculated in accordance with the following expression: Cell-killing rate %=(T−TS)/TS×(−100)
(§7) The cell growth inhibition rate and cell killing rate obtained by calculation were fitted to the Sigmoid Emax model to calculate 100% cell growth inhibitory concentration of each of Compound A alone, a second medical agent alone, and Compound A-second medical agent combinations at different concentrations.
(§8) Based on the 100% cell growth inhibitory concentrations (Compound A alone: D1, second medical agent alone: D2, Compound A when used in combination: d1, second medical agent when used in combination: d2) calculated, the combination index (CI) was calculated in accordance with the following expression: CI=d1/D1+d2/D2 Determination was based on the criteria: if CI<1, a synergetic effect is present; if CI=1, an additive effect is present; and if CI>1, an antagonist effect is present (refer to Adv. Enzyme Regul. 1984, p. 2227-55).

DB = assay type: cell-based; conditions: DLBCL (GCB), EZH2 MT (Y641N), 7 days culture then 3 days in assay plate
Procedure: as §3, §4, §5, §6, §7, §8

OCI-LY7 = assay type: cell-based; conditions: OCI-LY7, DLBCL (GCB), EZH2 WT; 7 days culture then 3 days in assay plate
Procedure: as §3, §4, §5, §6, §7, §8

GRANTA-519 = assay type: cell-based; conditions: GRANTA-519, MCL, EZH2 WT; 7 days culture then 3 days in assay plate
Procedure: as §3, §4, §5, §6, §7, §8

OCI-AML2 = assay type: cell-based; conditions: OCI-AML2, AML, MLL-AF6, DNMT3Amt, FLT3-ITD; 7 days culture then 3 days in assay plate
Procedure: as §3, §4, §5, §6, §7, §8

JeKo-1 = assay type: cell-based; conditions: JeKo-1, MCL, EZH2 WT; 7 days culture then 3 days in assay plate
Procedure: as §3, §4, §5, §6, §7, §8

REC-1 = assay type: cell-based; conditions: REC-1, MCL, EZH2 WT; 7 days culture then 3 days in assay plate
Procedure: as §3, §4, §5, §6, §7, §8

MOLM13 = assay type: cell-based; conditions: MOLM13, AML, MLL-AF9, FLT3-ITD; 7 days culture then 3 days in assay plate
Procedure: as §3, §4, §5, §6, §7, §8

MOLM14 = assay type: cell-based; conditions: MOLM14, AML, MLL-AF9, FLT3-ITD; 7 days culture then 3 days in assay plate
Procedure: as §3, §4, §5, §6, §7, §8

OCI-LY19 = assay type: cell-based; conditions: OCI-LY19, DLBCL (GCB), EZH2 WT; 7 days culture then 3 days in assay plate
Procedure: as §3, §4, §5, §6, §7, §8

DOHH-2 = assay type: cell-based; conditions: DOHH-2, DLBCL (GCB), EZH2 WT; 7 days culture then 3 days in assay plate
Procedure: as §3, §4, §5, §6, §7, §8

SU-DHL-2 = assay type: cell-based; conditions: SU-DHL-2, DLBCL (non-GCB), EZH2 WT; 7 days culture then 3 days in assay plate
Procedure: as §3, §4, §5, §6, §7, §8

OCI-LY3 = assay type: cell-based; conditions: OCI-LY3, DLBCL (non-GCB), EZH2 WT; 7 days culture then 3 days in assay plate
Procedure: as §3, §4, §5, §6, §7, §8

OCI-AML5 = assay type: cell-based; conditions: OCI-AML5, AML; 7 days culture then 3 days in assay plate
Procedure: as §3, §4, §5, §6, §7, §8

## Cc1cc(C)c(CNC(=O)c2cc(Cl)c3c(c2C)O[C@@](C)([C@H]2CC[C@H](N(C)C)CC2)O3)c(=O)[nH]1 [Compound A, (2R)-7-chloro-2-[trans-4-(dimethylamino)cyclohexyl]-N-[(4,6-dimethyl-2-oxo-1,2-dihydropyridin-3-yl)methyl]-2,4-dimethyl-1,3-benzodioxol-5-carboxamide p-toluenesulfonate]
MV-4-11
  Cpd A GI100 (100% cell growth inhibitory concentration): >100 nM
KARPAS-422
  Cpd A GI100 (100% cell growth inhibitory concentration): 5.7 nM
OCI-AML3
  Cpd A GI100 (100% cell growth inhibitory concentration): >1000 nM
DB
  Cpd A GI100 (100% cell growth inhibitory concentration): >100 nM
OCI-LY7
  Cpd A GI100 (100% cell growth inhibitory concentration): 90 nM
GRANTA-519
  Cpd A GI100 (100% cell growth inhibitory concentration): 53 nM
OCI-AML2
  Cpd A GI100 (100% cell growth inhibitory concentration): 647 nM
JeKo-1
  Cpd A GI100 (100% cell growth inhibitory concentration): 8.1 nM
REC-1
  Cpd A GI100 (100% cell growth inhibitory concentration): 170 nM
MOLM13
  Cpd A GI100 (100% cell growth inhibitory concentration): 97 nM
MOLM14
  Cpd A GI100 (100% cell growth inhibitory concentration): >1000 nM
OCI-LY19
  Cpd A GI100 (100% cell growth inhibitory concentration): >1000 nM
DOHH-2
  Cpd A GI100 (100% cell growth inhibitory concentration): 17 nM
SU-DHL-2
  Cpd A GI100 (100% cell growth inhibitory concentration): 4.9 nM
OCI-LY3
  Cpd A GI100 (100% cell growth inhibitory concentration): >1000 nM
OCI-AML5
  Cpd A GI100 (100% cell growth inhibitory concentration): >5 µM
